What was measured:
MAGI cells = assay: Trypan blue exclusion cytotoxicity test; conditions: four concentrations of porphyrin
Method: A standard trypan blue exclusion test (Strober, Trypan blue exclusion test of cell viability, p. A.3.3-A.3.4, in J. E. Coligan and A. M. Kruisbeek (ed.), Current protocols in immunology, Wiley-Greene, New York, N.Y., 1994) was used. Compounds at a concentration of 50 μg/ml in growth medium were added to a 96-well plate with MAGI cells. After 72 hr cells were detached by standard trypsin solution (0.25% trypsin-0.05% EDTA) and diluted 1:10 in growth medium. To test cell viability, 1 part of 0.4% trypan blue and 9 parts of diluted cells were mixed, incubated the mixture about 2 min at room temperature, and applied a drop of the trypan blue/cell mixture to a hemacytometer. Using a binocular microscope, the stained (nonviable) and unstained (viable) cells were then counted. The fraction of viable cells was calculated as the number of unstained cells in the wells treated with compound as a percentage of the number in control wells.
The selective index value was defined as the CC50/EC50 ratio.
A trypan blue exclusion test to determine possible toxicity of the test compounds. Compounds at a concentration of 50 μg/ml in growth medium were added to MAGI cells. […] After 72 hr, a trypan blue assay was used to compare cell viability in cells treated with compounds to untreated cells.

HSV-1(F) or HSV-2(G) = assay: In vitro HSV inactivation, plaque assay on Vero cells; format: cell-based, herpes simplex virus; conditions: room temperature, in the dark, up to 60 minutes
Method: Either HSV-1(F) or HSV-2(G) (10^7 pfu) was mixed with 1 ml of porphyrin at the concentration indicated in Dulbecco's modified Eagle's medium (DME) with 1% newborn calf serum. All assays were performed in duplicate. All tubes were wrapped in foil to keep out light, and ambient room light was reduced as much as was practicable. Virus and porphyrin were incubated together at room temperature for times up to 60 minutes (Table 2). Following incubation, 10 fold serial dilutions were performed in DME with 1% newborn serum, using tubes wrapped in foil. Virus was diluted 20,000 fold and plated on Vero cells. Following a 2 hour incubation with the cells, the inoculum was removed and cells were overlaid with DME with 1% newborn calf serum and 0.2% human gamma globulin. Cells were fixed and stained, and plaques counted, 2 days after infection.

[1] = biological target: T1, HIV-1 Env protein (HXB2 Env) (Human immunodeficiency virus type 1 group M subtype B, UniProt P04578); format: cell-based
T1 construct: expressed in transfected cells; host or cells: 293T cells transfected with pIIIenv3-1 plus pCMVTAT; cocultured with 3T3 cells expressing CD4 and CXCR4

89.6 Env = 89.6 Env (Human immunodeficiency virus type 1 group M subtype B, UniProt Q73372); format: cell-based, HIV-1
Sequence of 89.6 Env (Q73372 32-719 limits assumed): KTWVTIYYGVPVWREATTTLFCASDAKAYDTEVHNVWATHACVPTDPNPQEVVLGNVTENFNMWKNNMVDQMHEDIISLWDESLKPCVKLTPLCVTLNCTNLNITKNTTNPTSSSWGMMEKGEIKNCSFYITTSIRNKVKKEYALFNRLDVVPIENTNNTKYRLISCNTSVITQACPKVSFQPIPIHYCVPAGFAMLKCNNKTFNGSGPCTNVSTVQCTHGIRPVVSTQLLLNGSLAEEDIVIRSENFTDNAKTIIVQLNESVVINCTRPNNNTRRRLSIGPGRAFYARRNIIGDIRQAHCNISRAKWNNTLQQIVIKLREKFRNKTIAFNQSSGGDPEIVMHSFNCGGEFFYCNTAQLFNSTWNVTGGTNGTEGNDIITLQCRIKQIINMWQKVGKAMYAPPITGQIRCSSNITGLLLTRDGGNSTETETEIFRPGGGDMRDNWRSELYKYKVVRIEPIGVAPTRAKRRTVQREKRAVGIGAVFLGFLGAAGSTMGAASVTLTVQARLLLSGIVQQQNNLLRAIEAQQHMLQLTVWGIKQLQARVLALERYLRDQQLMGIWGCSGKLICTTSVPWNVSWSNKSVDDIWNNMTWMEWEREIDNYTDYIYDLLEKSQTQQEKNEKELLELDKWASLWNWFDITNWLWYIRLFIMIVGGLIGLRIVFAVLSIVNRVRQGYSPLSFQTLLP
Sequence of 89.6 Env (Q73372 509-719 partner limits assumed): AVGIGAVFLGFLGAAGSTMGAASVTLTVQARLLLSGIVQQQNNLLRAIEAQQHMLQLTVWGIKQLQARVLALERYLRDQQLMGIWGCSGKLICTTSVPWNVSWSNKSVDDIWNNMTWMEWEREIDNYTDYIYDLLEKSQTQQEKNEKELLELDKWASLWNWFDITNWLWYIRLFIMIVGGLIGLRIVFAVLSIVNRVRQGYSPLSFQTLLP

HIV-1 IIIB = assay: Screening for virucidal activity against HIV-1 IIIB, MAGI cell assay
[2] = biological target: T2, binding of HIV-1 IIIB gp120 to CD4 (Human immunodeficiency virus type 1 group M subtype B, UniProt P04578); assay: gp120-CD4 binding assay (ELISA); conditions: 1 hr at room temperature
T2 construct: The recombinant IIB gp120 protein (baculovirus-expressed) was obtained from Intracel; purchased Intracel (Cambridge, Mass.) for gp120; host or cells: baculovirus-expressed (gp120)
Method: To investigate the possible effect of porphyrin compounds on binding of HIV-1 IIIB gp120 to CD4, a gp120 CD4 binding assay was developed. The assay was developed as a modification of a capture gp120 ELISA kit (Intracel Corporation). Briefly, a 96-well plate was coated with soluble CD4 and 0.5 μg of HIV-1 IIIB gp120 per well was incubated in the presence or absence of test compounds for 1 hr at room temperature. After four washes with buffer to remove unbound proteins, the bound gp120 was detected by anti-gp120 peroxidase-conjugated antibodies and quantitated by the protocol provided by the manufacturer.

SIVmac1A11 = assay: Inactivation of SIVmac1A11 infectivity; format: cell-based, SIV
HIV-189.6 = assay: Inactivation of HIV-1 89.6 infectivity; format: cell-based
IIIB Env of HIV 1 = IIIB Env of HIV 1 (Human immunodeficiency virus type 1 group M subtype B, UniProt P03375); format: cell-based

Compound | CC50 (concentration that reduced the viability of cells by 50%) (MAGI cells) [µg/mL] | inactivating HSVs (HSV-1(F) or HSV-2(G)) | Presence of nuclei in syncytia, pIIIenv X4, 6 h [1] | Presence of nuclei in syncytia, VV89.6 envt R5, 6 h (89.6 Env) | Presence of nuclei in syncytia, VV89.6 envt R5, 23 h (89.6 Env) | Presence of nuclei in syncytia, VV89.6 envt X4, 23 h (89.6 Env) | selective index CC50/EC50 (HIV-1 IIIB) | inhibition of gp120/CD4 binding in words [2] | inhibition of HIV-induced cell fusion in words [1] | SIVmac1A11 inactivated (SIVmac1A11) [%] | HIV-1 89.6 inactivated (HIV-189.6) [%] | activity at low concentration (HIV-1 IIIB; 0.5 μg/ml, HIV-1 IIIB, MAGI cells) | kinetics of inactivation of HIV-1 IIIB (HIV-1 IIIB; 2 to 60 minutes) | activity against HIV in words (HIV-1 IIIB; MAGI screening assay, HIV-1 IIIB) | infected cells remaining (HIV-1 IIIB; after 2 min incubation) | inhibition of HIV-induced cell fusion in words (IIIB Env of HIV 1)
O=S(=O)(O)c1ccc(-c2c3nc(c(-c4ccc(S(=O)(=O)O)cc4)c4ccc([nH]4)c(-c4ccc(S(=O)(=O)O)cc4)c4nc(c(-c5ccccc5)c5ccc2[nH]5)C=C4)C=C3)cc1 [TPPS3, meso-tetraphenylporphyrin trisulfonate] | 50 | active | − | −/4+ | −/4+ (key: 4+: more than 50% of nuclei are in syncytia; 3+: 30 to 50% of nuclei are in syncytia; 2+: 30 to 10% of nuclei are in syncytia; +: less than 10% of nuclei are in syncytia; −: no syncytia were observed) | 1+/4+ (key: 4+: more than 50% of nuclei are in syncytia; 3+: 30 to 50% of nuclei are in syncytia; 2+: 30 to 10% of nuclei are in syncytia; +: less than 10% of nuclei are in syncytia; −: no syncytia were observed) | 10 |  |  |  |  |  |  |  |  | 
sulfonated 5,10,15,20-tetra-naphthalen-1-yl-porphyrin [TNapPS] | 75 |  | − |  |  |  |  | completely inhibit binding | complete inhibition | 88 | 76 | significant activity | inhibited viral growth almost completely | most active | approximately 1% | Complete inhibition
